US9969726B2, “Metabotropic glutamate receptor negative allosteric modulators (NAMS) and uses thereof” (Sanford-Burnham Medical Research Institute, priority 2014, dated 2018)
Where two headings read alike, the source gives them in different places.

Key:
rat mGlu3 receptor = rat mGlu3 receptor (Rattus norvegicus (Rat), UniProt P31422); experiment: mGlu3 in vitro GIRK thallium flux assay; format: cell-based; details: NAM; 2.5 min compound incubation; EC80 glutamate; HEK-293 GIRK cells
Summary of the method: (§1)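 Cells expressing rat mGlu2 or mGlu3 with GIRK, plated overnight at 37 °C. Test compounds (0.3% DMSO, 10-point 1:3 series) preincubated 2.5 or 60 min, then thallium buffer plus EC80 glutamate added. Fluorescence slope 5–15 s after addition, normalised to vehicle and maximal agonist, fitted by four-parameter logistic.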

rat mGlu2 receptor = rat mGlu2 receptor (Rattus norvegicus (Rat), UniProt P31421); experiment: mGlu2 in vitro GIRK thallium flux assay; format: cell-based; details: NAM, EC80 glutamate, HEK-293 GIRK cells
Sequence of rat mGlu2 receptor (P31421 19-872): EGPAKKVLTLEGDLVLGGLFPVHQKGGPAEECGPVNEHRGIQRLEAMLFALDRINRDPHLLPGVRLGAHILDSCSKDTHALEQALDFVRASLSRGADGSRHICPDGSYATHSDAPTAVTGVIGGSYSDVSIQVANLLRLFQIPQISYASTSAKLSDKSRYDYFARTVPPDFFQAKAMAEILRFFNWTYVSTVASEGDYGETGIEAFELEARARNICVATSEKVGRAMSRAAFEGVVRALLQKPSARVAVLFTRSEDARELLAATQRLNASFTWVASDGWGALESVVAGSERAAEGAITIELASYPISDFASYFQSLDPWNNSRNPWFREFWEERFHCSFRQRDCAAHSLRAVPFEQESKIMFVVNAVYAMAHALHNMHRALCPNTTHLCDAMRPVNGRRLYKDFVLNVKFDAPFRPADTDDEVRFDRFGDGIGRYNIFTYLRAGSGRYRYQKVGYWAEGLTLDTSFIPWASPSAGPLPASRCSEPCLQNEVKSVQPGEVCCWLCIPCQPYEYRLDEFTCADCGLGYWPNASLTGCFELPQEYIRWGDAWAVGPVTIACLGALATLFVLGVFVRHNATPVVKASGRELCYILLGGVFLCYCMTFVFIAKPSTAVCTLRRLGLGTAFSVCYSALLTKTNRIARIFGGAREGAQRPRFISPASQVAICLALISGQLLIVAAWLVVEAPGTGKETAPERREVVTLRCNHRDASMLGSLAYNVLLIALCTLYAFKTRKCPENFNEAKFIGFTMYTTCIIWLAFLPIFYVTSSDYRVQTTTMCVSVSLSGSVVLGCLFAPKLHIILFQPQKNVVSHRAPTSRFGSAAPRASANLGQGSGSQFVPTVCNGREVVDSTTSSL
Summary of the method: as §1

[1] = 2.5 min compound incubation, read-out: mGlu2 EC50 (μM) (2.5 min)
[2] = read-out: mGlu2 EC50 (μM) (60 min), 60 min compound incubation

Sequence of rat mGlu3 receptor (P31422 23-879): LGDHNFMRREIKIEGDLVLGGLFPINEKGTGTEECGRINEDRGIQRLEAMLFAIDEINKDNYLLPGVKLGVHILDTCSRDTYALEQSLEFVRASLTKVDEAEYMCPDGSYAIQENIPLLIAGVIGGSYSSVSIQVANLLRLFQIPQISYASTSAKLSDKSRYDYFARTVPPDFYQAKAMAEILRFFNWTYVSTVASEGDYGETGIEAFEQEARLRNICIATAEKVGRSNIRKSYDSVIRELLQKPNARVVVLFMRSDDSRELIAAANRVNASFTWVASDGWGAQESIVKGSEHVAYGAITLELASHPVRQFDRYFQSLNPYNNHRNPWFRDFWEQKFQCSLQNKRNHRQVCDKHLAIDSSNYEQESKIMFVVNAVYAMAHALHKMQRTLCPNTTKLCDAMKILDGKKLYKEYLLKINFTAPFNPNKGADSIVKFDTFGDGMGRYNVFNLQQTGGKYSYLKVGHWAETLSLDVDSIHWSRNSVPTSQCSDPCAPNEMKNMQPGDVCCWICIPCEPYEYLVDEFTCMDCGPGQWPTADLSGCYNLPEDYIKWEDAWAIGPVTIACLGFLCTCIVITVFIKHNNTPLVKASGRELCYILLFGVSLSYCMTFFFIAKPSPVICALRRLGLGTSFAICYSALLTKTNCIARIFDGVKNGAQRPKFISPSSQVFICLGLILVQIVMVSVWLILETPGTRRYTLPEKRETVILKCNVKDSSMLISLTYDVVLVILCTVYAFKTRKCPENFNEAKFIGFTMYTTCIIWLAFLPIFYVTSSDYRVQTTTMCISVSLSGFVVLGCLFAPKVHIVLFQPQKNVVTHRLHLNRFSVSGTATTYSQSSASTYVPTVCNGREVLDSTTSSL

Row | Structure (SMILES) | EC50 (rat mGlu3 receptor) | EC50 (rat mGlu2 receptor; [1]) | EC50 (rat mGlu2 receptor; [2])
1 | CNC(=O)c1cc(-c2cccc(-c3nc(-c4ccc(C(F)(F)F)nc4)cc(C(F)(F)F)n3)c2)ccc1Cl [Example 85, 4-Chloro-N-methyl-3′-(4-(trifluoromethyl)-6-(6-(trifluoromethyl)pyridin-3-yl)pyrimidin-2-yl)biphenyl-3-carboxamide] | > 30 µM | > 30 µM | > 10 µM
2 | O=C(O)c1cc(-c2cccc(-c3nc(-c4cccs4)cc(C(F)(F)F)n3)c2)ccc1F [Example 87A, 4-Fluoro-3′-(4-(thiophen-2-yl)-6-(trifluoromethyl)pyrimidin-2-yl)biphenyl-3-carboxylic Acid] | 1.26 µM | 1.12 µM | 0.24 µM
3 | O=C(O)c1cc(-c2cccc(-c3nc(-c4ccco4)cc(C(F)(F)F)n3)c2)ccc1F [Example 88, 4-Fluoro-3′-(4-(furan-2-yl)-6-(trifluoromethyl)pyrimidin-2-yl)biphenyl-3-carboxylic Acid] | 1.13 µM | 0.68 µM | 0.34 µM
4 | COc1ccc(-c2cccc(-c3nc(-c4ccco4)cc(C(F)(F)F)n3)c2)cc1C(=O)O [Example 90, 3′-(4-(Furan-2-yl)-6-(trifluoromethyl)pyrimidin-2-yl)-4-methoxybiphenyl-3-carboxylic Acid] | > 10 µM | 3.68 µM | 2.49 µM
5 | Cc1ccccc1-c1cc(C(F)(F)F)nc(-c2cccc(-c3ccc(F)c(C(=O)O)c3)c2)n1 [Example 91, 4-Fluoro-3′-(4-o-tolyl-6-(trifluoromethyl)pyrimidin-2-yl)biphenyl-3-carboxylic acid] | > 10 µM | 1.52 µM | 0.28 µM
6 | Cc1cccc(-c2cc(C(F)(F)F)nc(-c3cccc(-c4ccc(F)c(C(=O)O)c4)c3)n2)c1 [Example 92, 4-Fluoro-3′-(4-m-tolyl-6-(trifluoromethyl)pyrimidin-2-yl)biphenyl-3-carboxylic Acid] | 3.37 µM | 2.79 µM | 0.4 µM
7 | Cc1cc(C)cc(-c2cc(C(F)(F)F)nc(-c3cccc(-c4ccc(F)c(C(=O)O)c4)c3)n2)c1 [Example 93, 3′-(4-(3,5-Dimethylphenyl)-6-(trifluoromethyl)pyrimidin-2-yl)-4-fluorobiphenyl-3-carboxylic Acid] | > 10 µM | > 10 µM | 1.6 µM
8 | O=C(O)c1cc(-c2cccc(-c3nc(/C=C/c4ccccc4)cc(C(F)(F)F)n3)c2)ccc1F [Example 95, (E)-4-Fluoro-3′-(4-styryl-6-(trifluoromethyl)pyrimidin-2-yl)biphenyl-3-carboxylic Acid] | > 10 µM | > 10 µM | 
9 | CC(C)(C)c1ccc(-c2cc(C(F)(F)F)nc(-c3cccc(-c4ccc(F)c(C(=O)O)c4)c3)n2)cc1 [Example 96, 3′-(4-(4-tert-Butylphenyl)-6-(trifluoromethyl)pyrimidin-2-yl)-4-fluorobiphenyl-3-carboxylic Acid] | 6.11 µM | 5.38 µM | 1.08 µM
10 | O=C(O)c1cc(-c2cccc(-c3nc(-c4cccnc4F)cc(C(F)(F)F)n3)c2)ccc1F [Example 97, 4-Fluoro-3′-(4-(2-fluoropyridin-3-yl)-6-(trifluoromethyl)pyrimidin-2-yl)biphenyl-3-carboxylic Acid] | 2.21 µM | 1.07 µM | 0.36 µM
11 | O=C(O)c1cc(-c2cccc(-c3nc(-c4ccc(Cl)cc4)cc(C(F)(F)F)n3)c2)ccc1F [Example 98, 3′-(4-(4-Chlorophenyl)-6-(trifluoromethyl)pyrimidin-2-yl)-4-fluorobiphenyl-3-carboxylic Acid] | 2.47 µM | 2.87 µM | 0.35 µM
12 | COc1ccc(-c2cc(C(F)(F)F)nc(-c3cccc(-c4ccc(F)c(C(=O)O)c4)c3)n2)cc1OC [Example 99, 3′-(4-(3,4-Dimethoxyphenyl)-6-(trifluoromethyl)pyrimidin-2-yl)-4-fluorobiphenyl-3-carboxylic Acid] | 2.83 µM | > 10 µM | 1.3 µM
13 | O=C(O)c1cc(-c2cccc(-c3nc(-c4ccccc4F)cc(C(F)(F)F)n3)c2)ccc1F [Example 100, 4-Fluoro-3′-(4-(2-fluorophenyl)-6-(trifluoromethyl)pyrimidin-2-yl)biphenyl-3-carboxylic Acid] | 2.21 µM | 1.21 µM | 0.16 µM
14 | O=C(O)c1cc(-c2cccc(-c3nc(-c4cc5ccccc5o4)cc(C(F)(F)F)n3)c2)ccc1F [Example 101, 3′-(4-(Benzofuran-2-yl)-6-(trifluoromethyl)pyrimidin-2-yl)-4-fluorobiphenyl-3-carboxylic Acid] | > 10 µM | > 10 µM | 0.95 µM
15 | O=C(O)c1cc(-c2cccc(-c3nc(-c4cc5ccccc5s4)cc(C(F)(F)F)n3)c2)ccc1F [Example 102, 3′-(4-(Benzo[b]thiophen-2-yl)-6-(trifluoromethyl)pyrimidin-2-yl)-4-fluorobiphenyl-3-carboxylic Acid] | 3.12 µM | 3.33 µM | 0.88 µM
16 | CSc1ccc(-c2cc(C(F)(F)F)nc(-c3cccc(-c4ccc(F)c(C(=O)O)c4)c3)n2)cc1 [Example 103, 4-Fluoro-3′-(4-(4-(methylthio)phenyl)-6-(trifluoromethyl)pyrimidin-2-yl)biphenyl-3-carboxylic Acid] | 4.54 µM | 4.69 µM | 0.99 µM
17 | O=C(O)c1cc(F)cc(-c2cccc(-c3nc(-c4ccccc4)cc(C(F)(F)F)n3)c2)c1 [Example 104, 5-Fluoro-3′-(4-phenyl-6-(trifluoromethyl)pyrimidin-2-yl)biphenyl-3-carboxylic Acid] | 1.9 µM | 1.44 µM | 0.24 µM
18 | O=C(O)c1cc(-c2cccc(-c3nc(-c4cc(C(F)(F)F)cc(C(F)(F)F)c4)cc(C(F)(F)F)n3)c2)ccc1F [Example 105, 3′-(4-(3,5-Bis(trifluoromethyl)phenyl)-6-(trifluoromethyl)pyrimidin-2-yl)-4-fluorobiphenyl-3-carboxylic Acid] | > 10 µM | > 10 µM | 3.19 µM
19 | O=C(O)c1cc(-c2cccc(-c3nc(-c4ccc[nH]4)cc(C(F)(F)F)n3)c2)ccc1F [Example 106, 3′-(4-(1H-Pyrrol-2-yl)-6-(trifluoromethyl)pyrimidin-2-yl)-4-fluorobiphenyl-3-carboxylic Acid] | 5.06 µM | 1.19 µM | 1.42 µM
20 | O=C(O)c1cc(-c2cccc(-c3nc(-c4sccc4Cl)cc(C(F)(F)F)n3)c2)ccc1F [Example 107, 3′-(4-(3-Chlorothiophen-2-yl)-6-(trifluoromethyl)pyrimidin-2-yl)-4-fluorobiphenyl-3-carboxylic Acid] | > 10 µM | 4.53 µM | 
21 | O=C(O)c1cc(-c2cccc(-c3nc(-c4ccc(C(F)(F)F)cc4)cc(C(F)(F)F)n3)c2)ccc1F [Example 108, 4-Fluoro-3′-(4-(trifluoromethyl)-6-(4-(trifluoromethyl)phenyl)pyrimidin-2-yl)biphenyl-3-carboxylic Acid] | 1.49 µM | 1.5 µM | 
22 | O=C(O)c1cc(-c2cccc(-c3nc(-c4nccs4)cc(C(F)(F)F)n3)c2)ccc1F [Example 109, 4-Fluoro-3′-(4-(thiazol-2-yl)-6-(trifluoromethyl)pyrimidin-2-yl)biphenyl-3-carboxylic Acid] | 2.13 µM | 1.34 µM | 0.297 µM
23 | O=C(O)c1cc(-c2cccc(-c3nc(-c4ccc(Cl)cc4F)cc(C(F)(F)F)n3)c2)ccc1F [Example 110, 3′-(4-(4-Chloro-2-fluorophenyl)-6-(trifluoromethyl)pyrimidin-2-yl)-4-fluorobiphenyl-3-carboxylic Acid] | 5.34 µM | 4.08 µM | 0.65 µM
24 | Cc1noc(C)c1-c1cc(C(F)(F)F)nc(-c2cccc(-c3ccc(F)c(C(=O)O)c3)c2)n1 [Example 111, 3′-(4-(3,5-Dimethylisoxazol-4-yl)-6-(trifluoromethyl)pyrimidin-2-yl)-4-fluorobiphenyl-3-carboxylic Acid] | > 10 µM | > 10 µM | > 10 µM
25 | Cc1ccc(-c2cc(C(F)(F)F)nc(-c3cccc(-c4ccc(F)c(C(=O)O)c4)c3)n2)s1 [Example 112, 4-Fluoro-3′-(4-(5-methylthiophen-2-yl)-6-(trifluoromethyl)pyrimidin-2-yl)biphenyl-3-carboxylic Acid] | 3.14 µM | 3.19 µM | 0.75 µM
26 | O=C(O)c1cc(F)cc(-c2cccc(-c3nc(-c4ccoc4)cc(C(F)(F)F)n3)c2)c1 [Example 113, 5-Fluoro-3′-(4-(furan-3-yl)-6-(trifluoromethyl)pyrimidin-2-yl)biphenyl-3-carboxylic Acid] | 1.15 µM | 0.4 µM | 0.23 µM
27 | O=C(O)c1cccc(-c2cccc(-c3nc(-c4ccoc4)cc(C(F)(F)F)n3)c2)c1 [Example 115, 3′-(4-(Furan-3-yl)-6-(trifluoromethyl)pyrimidin-2-yl)biphenyl-3-carboxylic acid] | 0.96 µM | 0.28 µM | 0.12 µM
28 | O=C(O)c1cc(-c2cccc(-c3nc(-c4cccnc4)cc(C(F)(F)F)n3)c2)ccc1F [Example 116, 4-Fluoro-3′-(4-(pyridin-3-yl)-6-(trifluoromethyl)pyrimidin-2-yl)biphenyl-3-carboxylic Acid] | 8.58 µM | 2.11 µM | 0.27 µM
29 | Cc1cc(-c2ccoc2)nc(-c2cccc(-c3ccc(F)c(C(=O)O)c3)c2)n1 [Example 117, 4-Fluoro-3′-(4-(furan-3-yl)-6-methylpyrimidin-2-yl)biphenyl-3-carboxylic acid] | 0.28 µM | 0.08 µM | 0.07 µM
